IC50, solubility and half-life data for 1 molecule are collected here from patent publication US20250170104A1, “INHIBITORS OF PSEUDOMONAS AERUGINOSA VIRULENCE FACTOR Lasß” (priority 2022, published 2025).

In series [1] the target is ADAM-17 (TACE) (Homo sapiens (Human), UniProt P78536). Description: ADAM-17 (TACE) inhibitor screening assay. It is filed as biochemical. As to conditions: read-out: Selectivity IC50 TACE. Here is the method:
The ADAM-17 (TACE) Inhibitor Screening Assay Kit was purchased from Sigma-Aldrich. The assay was performed according to the guidelines of the manufacturer using ilomastat as a positive control. Fluorescence signals were measured in a CLARIOstar plate reader (BMG Labtech).

Series [2] in a line: Kinetic turbidimetric solubility assay. Particulars: PBS, aqueous buffer, kinetic from dmso stock. The series is classed as physicochemical. Here is the method: The desired compounds were sequentially diluted in DMSO in a 96-well plate. 1.5 μL of each well were transferred into another 96-well plate and mixed with 148.5 μL of PBS. Plates were shaken for 5 min at 600 rpm at room temperature, and the absorbance at 620 nm was measured. Absorbance values were normalized by blank subtraction and plotted using GraphPad Prism 8.4.2 (GraphPad Software, San Diego, CA, USA). Solubility (S) was determined based on the First X value of AUC function using a threshold of 0.005.

Series [3] can be described thus: in vitro. The series is classed as in vitro ADME. Particulars: mouse, s9. Here is the method:
For the evaluation of combined phase I and phase II metabolic stability, the compound (1 μM) was incubated with 1 mg/mL pooled liver S9 fraction (Xenotech), 2 mM NADPH, 1 mM UDPGA, 10 mM MgCl2, 5 mM GSH and 0.1 mM PAPS at 37° C. for 0, 5, 15, 30 and 60 min. The metabolic stability of Testosterone (1 μM), verapamil (1 μM) and ketoconazol (1 μM) were determined in parallel to confirm the enzymatic activity of the S9 fraction. The incubation was stopped by precipitation of S9 enzymes with 2 volumes of cold acetonitrile containing internal standard (150 nM Diphenhydramine). Samples were stored on ice for 10 min and precipitated protein was removed by centrifugation (15 min, 4° C., 4,000 rpm). The remaining test compound at different time points was analyzed by LC-MS/MS (TSQ Quantum Access MAX, Thermo Fisher, Dreieich, Germany) and used to determine half-life (t½).

For series [4], the system named is P. aeruginosa PA-14. Briefly: MIC determination assay / antibacterial activity. It is filed as cell-based. As to conditions: Pseudomonas aeruginosa, PA14. Here is the method: Assays regarding the determination of the minimum inhibitory concentration (MIC) were performed as described previously (Elgaher W A M, Fruth M, Groh M, Haupenthal J, Hartmann R W. Expanding the scaffold for bacterial RNA polymerase inhibitors: design, synthesis and structure-activity relationships of ureido-heterocyclic-carboxylic acids. RSC Adv. 2013 Dec. 3; 4(5):2177-94). The experiments were based on the P. aeruginosa strain PA14. For the case that no MIC value could be determined due to activity reasons, percentage (%) inhibition at 100 μM (or lower, depending on the solubility of the compounds) was calculated. The OD600 was measured 0 and 16 h after inhibitor addition in a CLARIOstar Platereader (BMG Labtech, Ortenberg, Germany).

Series [5] deals with purified LasB (Pseudomonas aeruginosa (strain ATCC 15692 / DSM 22644 / CIP 104116 / JCM 14847 / LMG 12228 / 1C / PRS 101 / PAO1), UniProt P14756). Briefly: Ex vivo lung homogenate assay with purified LasB. It is filed as biochemical. Here is the method:
The lung homogenate was prepared from pig lung, which was stored at −80° C. After thawing the lung tissue was cut into pieces of approximately 1.5 cm diameter and 0.5 to 1 cm thickness. Subsequently the bits were flash frozen in liquid nitrogen and lyophilized for 48 h.
1.2 g dried tissue was then ball milled using an IKA Tube Drive and the respective 50 mL ball milling tubes. 20 steel balls were used with target rpm of 6000, reversing the spinning direction every 30 seconds for a total of 10 min. After 10 min the tube was detached and inverted to loosen the powder. The ball milling was repeated with the same setup twice again.
To the powdery tissue 50 mL of a 10 mM Tris buffer including 2 mM CaCl2 with a pH of 8.0 was added and the IKA Tube Drive used again with the same settings as described before for 10 min to disperse the tissue powder in the aqueous buffer. The yielded lung homogenate was pipetted into 15 mL falcons and stored at −80° C. until further use.
To perform the LasB activity/inhibition assay a compound dilution was prepared in DMSO yielding a 100 fold concentration of the final concentration in the assay. LasB was diluted from a higher stock solution to a 6 μM stock in the same buffer as used for the lung homogenate. The assay was performed in Eppis. With a stepper pipette 10 μL of the prepared LasB solution was added to the Eppis to yield a final protein concentration of 300 nM. Then 188 μL of thawed lung homogenate was added with a stepper pipette. Finally, 2 μL of the 100 fold compound dilutions were added and mixed by pipetting up and down. The Eppis were incubated at 37° C. with a shaking speed of 1000 rpm for 4 h.
After 4 h, the Eppis were centrifuged at a speed of 14,000 rpm, 4° C. for 10 min to separate the soluble cleaved Elastin fragments from the non-cleaved insoluble part. 100 μL of the obtained supernatant was transferred to new Eppis, and the same volume of concentrated hydrochloric acid added. […]
Peak areas and response ratios were calculated using Xcalibur Quan browser with Amprolium set as internal standard. […]

The structures appear in SMILES notation.

Sequence of purified LasB (P14756 198-498): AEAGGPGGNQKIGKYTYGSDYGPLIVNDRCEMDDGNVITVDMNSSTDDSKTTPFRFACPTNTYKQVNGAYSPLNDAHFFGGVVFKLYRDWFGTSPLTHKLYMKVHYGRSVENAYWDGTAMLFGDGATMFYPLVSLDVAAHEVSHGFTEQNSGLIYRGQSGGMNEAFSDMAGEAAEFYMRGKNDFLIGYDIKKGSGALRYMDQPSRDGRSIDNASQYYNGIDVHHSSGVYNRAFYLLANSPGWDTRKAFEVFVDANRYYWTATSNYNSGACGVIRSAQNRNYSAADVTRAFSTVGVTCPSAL
Sequence of ADAM-17 (TACE) (P78536 whole entry, looked up): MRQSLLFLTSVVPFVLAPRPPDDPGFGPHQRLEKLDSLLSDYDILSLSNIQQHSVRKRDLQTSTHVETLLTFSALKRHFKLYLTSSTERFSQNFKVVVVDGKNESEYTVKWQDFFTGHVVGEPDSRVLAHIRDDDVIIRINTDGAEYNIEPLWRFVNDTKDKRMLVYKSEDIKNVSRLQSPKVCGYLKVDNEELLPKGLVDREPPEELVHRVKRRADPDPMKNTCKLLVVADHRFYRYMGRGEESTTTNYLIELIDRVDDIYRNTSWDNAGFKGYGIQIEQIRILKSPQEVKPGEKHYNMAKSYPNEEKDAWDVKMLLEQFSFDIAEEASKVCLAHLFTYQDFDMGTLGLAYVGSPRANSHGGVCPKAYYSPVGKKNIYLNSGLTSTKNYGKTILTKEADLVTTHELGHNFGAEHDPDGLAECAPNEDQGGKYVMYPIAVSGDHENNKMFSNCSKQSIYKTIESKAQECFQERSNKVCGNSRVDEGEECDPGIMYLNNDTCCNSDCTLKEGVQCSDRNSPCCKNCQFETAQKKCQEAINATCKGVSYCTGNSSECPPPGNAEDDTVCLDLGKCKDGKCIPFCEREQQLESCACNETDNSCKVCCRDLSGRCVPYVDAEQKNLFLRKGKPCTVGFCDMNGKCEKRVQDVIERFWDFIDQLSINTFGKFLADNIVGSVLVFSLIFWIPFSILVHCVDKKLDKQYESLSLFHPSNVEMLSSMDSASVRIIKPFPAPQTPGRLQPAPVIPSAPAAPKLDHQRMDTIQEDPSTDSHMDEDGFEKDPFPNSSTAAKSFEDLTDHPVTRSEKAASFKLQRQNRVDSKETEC

Turning to `CC(C)CC(C(=O)NO)C(=O)Nc1ccc(Cn2cc(CNS(=O)(=O)CC(C)C)nn2)cc1` (centres unmarked) [Compound 169, 2-(Hydroxycarbamoyl)-N-[4-[[4-[(isobutylsulfonylamino)methyl]triazol-1-yl]methyl]phenyl]-4-methyl-pentanamide], the IC50 in series [1] was over 100 µM; in series [4], over 100 µM; in series [5], 0.077 µM. This molecule also returned a solubility at 5 min in series [2] of over 200 µM. Also, in series [3], the half-life at 1 μM was over 2 h.

One may read the IC50 as the point on the concentration scale where inhibition reaches its midpoint. Usually solubility stands for how much of the substance goes into solution per volume. The term half-life denotes how long it takes for the measured level to halve.
